Columns and labels:
[1] = test system: dexamethasone treated insulin resistant 3T3-L1 adipocytes; assay: Insulin resistance assay (IR assay), 14C-2-deoxyglucose uptake; format: cell-based, mouse
Excerpt: A suitable insulin resistance assay includes screening of compounds which act as insulin-sensitizers using chronically dexamethasone treated 3T3-L1 adipocytes as an in vitro model. This is a known model for studying insulin signaling and insulin resistance. Chronically dexamethasone treated 3T3-L1 adipocytes serve as a valid in vitro model of insulin resistance resembling diabetes patients.
In an embodiment, the method according to the present invention includes screening compounds identified as active in the phenotype-based assay against dexamethasone treated insulin resistant adipocytes. For example, the method can include applying actives from the insulin sensitivity assay at a concentration of 1-10 μM to the insulin resistant adipocytes for 1-4 days. The adipocytes were previously prepared for the assay by long term exposure to dexamethasone, for example, at 100 nM for about 24-48 hours.
The method can also include determining whether the compounds enhance glucose uptake in the insulin resistant adipocytes by more than 50% above that enhanced by insulin. The method can then include selecting compounds as active, if they caused 1.5 fold or more increase in glucose uptake compared to insulin treated adipocytes. Glucose uptake can be measured by any of a variety of known methods, such as measuring uptake of ^14C-labeled 2-deoxyglucose, a non metabolisable analogue of D-Glucose.
The assay was designed as in the reference, British Journal of Pharmacology, 130, 351-58, 2000, which is incorporated herein by reference for disclosure of the assay.
The solution of test compound (10 μM/mL) was prepared in DMSO.
Rosiglitazone (0.1 μM in DMSO) was used as standard.
Differentiation into adipocytes was induced by known methods as described below. (J. Biol. Chem., 260, 2646-2652, 1985, which is incorporated herein by reference for disclosure of the induction).
Culture medium containing […] 1-methyl-3-isobutylxanthine (IBMX), 0.25 μM dexamethasone, 5 μg/ml insulin (bovine/human), 10 mM HEPES buffer and fetal bovine serum (FBS) 10% by volume in Dulbecco's modified Eagle's medium (DMEM) was used for differentiation.
3T3 L1 fibroblasts were seeded in 24-well or 6-well plates at a density of 0.5-2×10^4 cells/well and were allowed to reach maximal confluency.
The confluent fibroblasts were exposed to culture medium for 2 days. After this period, fresh culture medium (DMEM) containing only insulin was used, 10% FBS was added and cultured for 4 days with change of medium every 2 days. After 7 days the cultures received DMEM containing 10% FBS with no exposure to insulin. By the end of 8-10 days, more than 95% of the cells have become differentiated into adipocytes.
The mature adipocytes were exposed to dexamethasone, 100 nM added in ethanol, in culture medium and incubated for 2 days. On the third day, solution of test compound was added along with 100 nM dexamethasone containing medium for 4 days with a change in medium after every 2 days. Vehicle control contained 1% v/v of DMSO. Rosiglitazone was used as a standard and was added at a concentration of 0.1 μM in DMSO, along with 100 nM dexamethasone containing medium for 4 days with a change in medium after every 2 days. After a total period of 6 days, the cells were processed for glucose uptake as follows.
The insulin resistant adipocytes were exposed to serum-free DMEM containing 0.1% bovine serum albumin for 3-4 hours at 37° C. in CO2 atmosphere. The test compound was also present during this period. After 3-4 hours, the medium was aspirated and replaced with Kreb's Ringer phosphate (KRP) buffer at pH 7.4 and with human/porcine insulin, 200 nM. The cells were incubated for 30 minutes at 37° C. At the end of 30 minutes, 0.05 or 0.1 μCi of ^14C-2-deoxyglucose was added to each well of either 24-well or 6-well plates respectively and was incubated for exactly 5 minutes. After exactly 5 minutes, the plates were transferred to ice trays and medium was rapidly aspirated. […]

3T3 L1 fibroblasts = assay: Adipogenesis assay (phenotype-based primary screen); format: cell-based, mouse; conditions: test compound 20 μg/ml plus 5 μg/ml insulin, 8 days
Method: The phenotype-based assay used for screening the test compounds in the first screening step is an adipogenesis assay. Any of a variety of adipogenesis assays can be employed. Suitable adipogenesis assays can employ fibroblasts 3T3-L1, which can be derived from mouse and insulin, for example, of either human, porcine or bovine origin. The test compounds can be dissolved at a suitable concentration (e.g., 20 μg/ml) in a suitable solvent such as DMSO. Fibroblasts can be grown in 96-well plates containing sufficient cells, for example 5×10^4 cells/well, that are cultured in nutrient medium along with 5 μg/ml of insulin. After 3 days of incubation in CO2 incubators at 37° C., the nutrient medium with compounds is removed and fresh medium is exposed to the cells. After 8 days, the ability of compounds to potentiate insulin effect on transformation into fat filled cells, adipocytes, was assessed by observing under an inverted microscope. The lipid droplets are stained with Oil red O and percentage of stained cells is determined (e.g., estimated).
Compounds that caused the formation of adipocytes by more than 5 times the vehicle are termed as actives.
The assay was designed as in the reference J. Bio. […]
At the end of 8 days, the number of fat filled adipocytes formed in each well was assessed by observing under microscope. […]

Compound: CCOC(=O)c1ccc(C(=N)NC(=O)OC)cc1C [Compound 9, 4-(Imino-methoxycarbonylaminomethyl)-2-methyl-benzoic acid ethyl ester]
- activity in insulin resistance assay (cut off 1.5-fold of vehicle) ([1]; insulin resistant adipocytes, glucose uptake): inactive
- % of Rosiglitazone (comparison with Rosiglitazone) ([1]; test compound 10 μM/mL versus Rosiglitazone 0.1 μM): NIL
- Fold vehicle (fold activity over vehicle) ([1]; test compound 10 μM/mL, glucose uptake with 200 nM insulin, vehicle = 1.0): 1.01 ± 0.27
- activity in adipogenesis assay (active = adipocytes more than 5 times the vehicle) (3T3 L1 fibroblasts): inactive

Reference: patent US20090318465A1, “METHOD FOR IDENTIFYING COMPOUNDS THAT ACT AS INSULIN-SENSITIZERS” (priority 2006, published 2009)
